Experimental data reported in patent publication US12564554B2, “Co-amorphous forms of beta-lactoglobulin and a drug substance” (DISPERSOME IP APS, priority 2019, dated 2026).

experiment: mDSC measurement of the glass transition temperature (Tg); type: physicochemical; conditions: freshly prepared, ball milled (Table 2)
Experimental: The mDSC thermograms of the samples were collected using a Discovery DSC (TA instruments, New Castle, USA) under a nitrogen gas flow of 50 ml/min. The samples containing Compound A, Compound B and IND were analysed at a heating rate of 2° C./min from 25° C. to 200° C., with an underlying modulation temperature amplitude of 0.2120° C. and a period of 40 s. For the remaining samples the same heating rate, amplitude and period were applied. Samples containing compounds APA, BDQ, RIF and VNX were heated from 25° C. to 250° C., and samples containing Compound RIT were heated from 0° C. to 170° C. A total of 4-8 mg sample powder was filled into aluminium Tzero pans and sealed with an aluminium Tzero lid. The glass transition temperature (Tg) was determined as the midpoint from the reversing heat flow signal.

Row | Compound | Tg [°C]
1 | bedaquiline fumarate [Pure amorphous BDQ] | 79.4
2 | CNC(=O)c1ccc(N2C(=S)N(c3cnc(C#N)c(C(F)(F)F)c3)C(=O)C23CCC3)cc1F [Pure amorphous APA, Apalutamide] | 97.4
3 | CO[C@H]1/C=C/O[C@@]2(C)Oc3c(C)c(O)c4c(O)c(c5c(nc6cc(C)ccn65)c4c3C2=O)NC(=O)/C(C)=C\C=C\[C@H](C)[C@H](O)[C@@H](C)[C@@H](O)[C@@H](C)[C@H](OC(C)=O)[C@@H]1C [Pure amorphous RIF, rifaximin] | 194.4
4 | CC(C)c1nc(CN(C)C(=O)N[C@H](C(=O)N[C@@H](Cc2ccccc2)C[C@H](O)[C@H](Cc2ccccc2)NC(=O)OCc2cncs2)C(C)C)cs1 [Pure amorphous RIT, ritonavir] | 41.7
